Laboratory results from patent US10072005B2, “4-azaindole derivatives” (EISAI R&D MANAGEMENT CO., LTD., priority 2013, dated 2018).

The compounds below were run against mAChR M1 (Homo sapiens, UniProt P11229) (assay: In vitro cellular calcium flux assay, positive allosteric modulation of mAChR M1). Details: not given.
Sequence of mAChR M1 (P11229 whole entry, looked up): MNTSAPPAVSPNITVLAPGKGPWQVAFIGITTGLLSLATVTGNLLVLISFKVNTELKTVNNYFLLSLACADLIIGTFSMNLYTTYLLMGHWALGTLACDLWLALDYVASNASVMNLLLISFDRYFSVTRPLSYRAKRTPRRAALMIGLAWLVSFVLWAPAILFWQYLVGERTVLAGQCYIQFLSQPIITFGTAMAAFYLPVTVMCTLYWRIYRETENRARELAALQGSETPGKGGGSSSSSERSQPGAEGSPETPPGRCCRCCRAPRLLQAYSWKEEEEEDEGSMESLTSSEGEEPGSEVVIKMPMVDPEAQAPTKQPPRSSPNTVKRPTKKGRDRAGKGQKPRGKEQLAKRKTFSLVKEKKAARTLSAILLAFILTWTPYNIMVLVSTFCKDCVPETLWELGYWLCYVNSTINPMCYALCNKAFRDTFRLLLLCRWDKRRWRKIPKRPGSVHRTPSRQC
Format: cell-based
Method: Baby hamster kidney cells stably expressing human or rat mAChR M1 to M5 were utilised for primary and selectivity profiling activities. mAChR M2 and M4 cell lines also stably expressed the chimeric Gαqi5 G-protein.
Human mAChR M1, M3, M5 and rat M1 cells were grown in low glucose Dulbecco's Modified Eagle's Medium (DMEM) medium plus heat inactivated 10% fetal bovine serum (HI FBS) and 500 μg/ml hygromycin B^1. Human mAChR M2 and M4 cells were maintained as above with^2 the addition of 500 μg/ml G418 to the media. Cells were maintained in culture at 37° C./5% CO2 and passaged twice weekly by treatment with 0.05% Trypsin/EDTA detachment solution, centrifugation (200 g, 5 min) and re-suspension in fresh media. Following cell expansion, cells were cryopreserved at −80° C. by treatment with 0.05% Trypsin/EDTA detachment solution, centrifugation (200 g, 5 min) and re-suspension of the pellet in freezing media (90% HI FBS/10% DMSO^3) at 15E6 cells/ml^4.
Prior to assaying, cells were prepared by thawing at 37° C. in a water bath, centrifugation (200 g, 5 min) and re-suspension of the pellet in fresh media. 15000 cells per well were seeded in black, clear bottomed 384-well Greiner Bio-One plates in plating medium (DMEM/10% HI FBS) and incubated overnight at 37 C/5% CO2.
On the day of the assay, media was removed from each well and replaced with 50 μl^5 assay buffer (HBSS with 20 mM HEPES and 2.5 mM Probenecid) containing the calcium indicator, Calcium 4 (Molecular Devices). Cells were then incubated at 37° C./5% CO2 for 30 min and at room temperature.
Compound preparation was carried out by generation of 11-point, 1 in 3 serial dilution concentration response curves in 100% DMSO. Compound was then diluted 1 in 65^6 with assay buffer (HBSS with 20 mM HEPES and 2.5 mM Probenecid) prior to the addition of 10 ul^7 to the cells using a Tetra fluorometric imaging plate reader (Molecular Devices)^8. Compound driven increases in intracellular calcium flux was measured as an increase in fluorescence (494Ex, 516Em)^9.
Positive allosteric modulator pEC50 values and antagonist pIC50 values for each compound were then determined. […] The points of modification and the alternate reagents, concentrations or equipment employed in these examples were: ^1200 μg/ml hygromycin B; ^2G418 not added; ^3CELLBANKER 1; ^410E6; ^5 40 μl; ^6 1 in 99; ^7 20 μl; ^8FDSS6000 (Hamamatsu Photonics); ^9(480Ex, 540Em); ^10Spotfire (TIBCO).
O=C(N[C@@H]1CCOC[C@H]1O)c1cn(Cc2cccc(F)c2)c2c(Cl)ccnc12 (single isomer, unassigned) [Example 86, 7-Chloro-1-(3-fluorobenzyl)-N-(trans-3-hydroxytetrahydro-2H-pyran-4-yl)-1H-pyrrolo[3,2-b]pyridine-3-carboxamide] gave an EC50 of 0.0251 µM.
Compound N#Cc1ccc(Cn2cc(C(=O)N[C@H]3CCCC[C@@H]3O)c3nccc(Cl)c32)cn1 [Example 70, 7-Chloro-1-((6-cyanopyridin-3-yl)methyl)-N-((1S,2S)-2-hydroxycyclohexyl)-1H-pyrrolo[3,2-b]pyridine-3-carboxamide] has an EC50 of 0.1 µM.

Same assay, conditions: BHK cells expressing mAChR M1; EC20 carbachol; Examples 76-80 and 82-89 slightly modified procedure
With Cc1ccnc2c(C(=O)N[C@H]3CCCC[C@@H]3O)cn(Cc3ccc(Cl)cn3)c12 [Example 81, 1-((5-Chloropyridin-2-yl)methyl)-N-((1S,2S)-2-hydroxycyclohexyl)-7-methyl-1H-pyrrolo[3,2-b]pyridine-3-carboxamide] the “pEC50 for positive allosteric modulation” value was 7.2.
In the case of Cc1ccc(Cn2cc(C(=O)N[C@H]3CCCC[C@@H]3O)c3ncccc32)cc1 [Example 1, N-((1S,2S)-2-hydroxycyclohexyl)-1-(4-methylbenzyl)-1H-pyrrolo[3,2-b]pyridine-3-carboxamide], the “pEC50 for positive allosteric modulation” value is reported as 7.0.
With COc1ccc(Cn2cc(C(=O)N[C@H]3CCCC[C@@H]3O)c3nccc(OC)c32)cc1 [Example 105, N-((1S,2S)-2-hydroxycyclohexyl)-7-methoxy-1-(4-methoxybenzyl)-1H-pyrrolo[3,2-b]pyridine-3-carboxamide] the “pEC50 for positive allosteric modulation” value was 6.7.
O=C(N[C@@H]1CCCNC1)c1cn(Cc2ccc(-n3cccn3)cc2)c2cccnc12 [Example 53, (R)-1-(4-(1H-Pyrazol-1-yl)benzyl)-N-(piperidin-3-yl)-1H-pyrrolo[3,2-b]pyridine-3-carboxamide] was tested, and the “pEC50 for positive allosteric modulation” value was 6.2.
O=C(N[C@H]1CCCC[C@@H]1O)c1cn(Cc2ccncc2)c2cccnc12 [Example 77, N-((1S,2S)-2-Hydroxycyclohexyl)-1-(pyridin-4-ylmethyl)-1H-pyrrolo[3,2-b]pyridine-3-carboxamide] was tested, and the “pEC50 for positive allosteric modulation” value was 6.3.
In the case of O=C(N[C@H]1CCCC[C@@H]1O)c1cn(Cc2ccc(Cl)cc2)c2cccnc12 [Example 23, 1-(4-Chlorobenzyl)-N-((1S,2S)-2-hydroxycyclohexyl)-1H-pyrrolo[3,2-b]pyridine-3-carboxamide], the “pEC50 for positive allosteric modulation” value is reported as 6.6.
O=C(N[C@H]1CCCC[C@@H]1O)c1cn(Cc2ccc(OC(F)(F)F)cc2)c2cccnc12 [Example 9, N-((1S,2S)-2-Hydroxycyclohexyl)-1-(4-(trifluoromethoxy)benzyl)-1H-pyrrolo[3,2-b]pyridine-3-carboxamide] was tested, and the “pEC50 for positive allosteric modulation” value was 6.6.
In the case of Cc1cnc(Cn2cc(C(=O)N[C@H]3CCCC[C@@H]3O)c3nccc(Cl)c32)s1 [Example 75, 7-Chloro-N-((1S,2S)-2-hydroxycyclohexyl)-1-((5-methylthiazol-2-yl)methyl)-1H-pyrrolo[3,2-b]pyridine-3-carboxamide], the “pEC50 for positive allosteric modulation” value is reported as 6.6.
For Cc1ccnc2c(C(=O)N[C@H]3CCCC[C@@H]3O)cn(Cc3ccc(Cl)cc3)c12 [Example 60, 1-(4-Chlorobenzyl)-N-((1S,2S)-2-hydroxycyclohexyl)-7-methyl-1H-pyrrolo[3,2-b]pyridine-3-carboxamide], the “pEC50 for positive allosteric modulation” value was 7.8.
With O=C(N[C@H]1CCCC[C@@H]1O)c1cn(Cc2ccc(Br)cc2)c2cccnc12 [Example 56, 1-(4-Bromobenzyl)-N-((1S,2S)-2-hydroxycyclohexyl)-1H-pyrrolo[3,2-b]pyridine-3-carboxamide] the “pEC50 for positive allosteric modulation” value was 6.5.
O=C(N[C@H]1CCCC[C@@H]1O)c1cn(Cc2ccc(F)cc2)c2c(Cl)ccnc12 [Example 14, 7-Chloro-1-(4-fluorobenzyl)-N-((1S,2S)-2-hydroxycyclohexyl)-1H-pyrrolo[3,2-b]pyridine-3-carboxamide] was tested, and the “pEC50 for positive allosteric modulation” value was 7.3.
In the case of COc1ccc(Cn2cc(C(=O)N[C@H]3CCCC[C@@H]3O)c3ncccc32)c(F)c1 [Example 92, 1-(2-fluoro-4-methoxybenzyl)-N-((1S,2S)-2-hydroxycyclohexyl)-1H-pyrrolo[3,2-b]pyridine-3-carboxamide], the “pEC50 for positive allosteric modulation” value is reported as 6.4.
In the case of COc1ccc2c(n1)c(C(=O)N[C@H]1CCCC[C@@H]1O)cn2Cc1ccc(F)cc1 [Example 38, 1-(4-Fluorobenzyl)-N-((1S,2S)-2-hydroxycyclohexyl)-5-methoxy-1H-pyrrolo[3,2-b]pyridine-3-carboxamide], the “pEC50 for positive allosteric modulation” value is reported as 5.8.
For O=C(N[C@H]1CCCC[C@@H]1O)c1cn(Cc2cccc(C(F)(F)F)c2)c2cccnc12 [Example 95, N-((1S,2S)-2-hydroxycyclohexyl)-1-(3-(trifluoromethyl)benzyl)-1H-pyrrolo[3,2-b]pyridine-3-carboxamide], the “pEC50 for positive allosteric modulation” value was 6.1.
In the case of COc1ccnc2c(C(=O)N[C@H]3CCCC[C@@H]3O)cn(Cc3ccc(F)cc3)c12 [Example 37, 1-(4-Fluorobenzyl)-N-((1S,2S)-2-hydroxycyclohexyl)-7-methoxy-1H-pyrrolo[3,2-b]pyridine-3-carboxamide], the “pEC50 for positive allosteric modulation” value is reported as 6.7.
For O=C(N[C@H]1CCCC[C@@H]1O)c1cn(Cc2ccccc2F)c2cccnc12 [Example 22, 1-(2-Fluorobenzyl)-N-((1S,2S)-2-hydroxycyclohexyl)-1H-pyrrolo[3,2-b]pyridine-3-carboxamide], the “pEC50 for positive allosteric modulation” value was 6.5.
For O=C(N[C@@H]1CCOC[C@H]1O)c1cn(Cc2ccc(F)cc2)c2c(Cl)ccnc12 [Example 89, 7-Chloro-1-(4-fluorobenzyl)-N-((3S,4R)-3-hydroxytetrahydro-2H-pyran-4-yl)-1H-pyrrolo[3,2-b]pyridine-3-carboxamide], the “pEC50 for positive allosteric modulation” value was 6.6.
In the case of O=C(N[C@H]1CCCC[C@@H]1O)c1cn(Cc2ccc(F)cn2)c2c(Cl)ccnc12 [Example 17, 7-Chloro-1-((5-fluoropyridin-2-yl)methyl)-N-((1S,2S)-2-hydroxycyclohexyl)-1H-pyrrolo[3,2-b]pyridine-3-carboxamide], the “pEC50 for positive allosteric modulation” value is reported as 6.9.
Cc1ccnc2c(C(=O)N[C@H]3CCCC[C@@H]3O)cn(Cc3cnn(C)c3)c12 [Example 73, N-((1S,2S)-2-Hydroxycyclohexyl)-7-methyl-1-((1-methyl-1H-pyrazol-4-yl)methyl)-1H-pyrrolo[3,2-b]pyridine-3-carboxamide] was tested, and the “pEC50 for positive allosteric modulation” value was 7.9.
For COc1ccc(Cn2cc(C(=O)N[C@H]3CCCC[C@@H]3O)c3nccc(C)c32)cn1 [Example 67, N-((1S,2S)-2-Hydroxycyclohexyl)-1-((6-methoxypyridin-3-yl)methyl)-7-methyl-1H-pyrrolo[3,2-b]pyridine-3-carboxamide], the “pEC50 for positive allosteric modulation” value was 7.5.
Cc1ccc2c(n1)c(C(=O)N[C@H]1CCCC[C@@H]1O)cn2Cc1ccc(-n2cccn2)cc1 [Example 40, 1-(4-(1H-Pyrazol-1-yl)benzyl)-N-((1S,2S)-2-hydroxycyclohexyl)-5-methyl-1H-pyrrolo[3,2-b]pyridine-3-carboxamide] was tested, and the “pEC50 for positive allosteric modulation” value was 6.5.
For Cc1cc(-c2ccc(Cn3cc(C(=O)N[C@H]4CCCC[C@@H]4O)c4ncccc43)c(F)c2)ccn1 [Example 45, 1-(2-Fluoro-4-(2-methylpyridin-4-yl)benzyl)-N-((1S,2S)-2-hydroxycyclohexyl)-1H-pyrrolo[3,2-b]pyridine-3-carboxamide], the “pEC50 for positive allosteric modulation” value was 7.5.
Cc1cc(Cn2cc(C(=O)N[C@H]3CCCC[C@@H]3O)c3nccc(Cl)c32)ccn1 [Example 78, 7-Chloro-N-((1S,2S)-2-hydroxycyclohexyl)-1-((2-methylpyridin-4-yl)methyl)-1H-pyrrolo[3,2-b]pyridine-3-carboxamide] was tested, and the “pEC50 for positive allosteric modulation” value was 7.8.
In the case of COc1ccc(Cn2cc(C(=O)N[C@H]3CCCC[C@@H]3O)c3ncccc32)cc1 [Example 93, N-((1S,2S)-2-hydroxycyclohexyl)-1-(4-methoxybenzyl)-1H-pyrrolo[3,2-b]pyridine-3-carboxamide], the “pEC50 for positive allosteric modulation” value is reported as 6.9.

Same assay, conditions: BHK cells expressing mAChR M1; EC20 carbachol; Examples 76-80 and 82-89 slightly modified procedure; read-out: pEC50 for positive allosteric modulation (converted)
N#Cc1ccc2c(n1)c(C(=O)N[C@H]1CCCC[C@@H]1O)cn2Cc1ccc(-n2cccn2)cc1 [Example 41, 1-(4-(1H-Pyrazol-1-yl)benzyl)-5-cyano-N-((1S,2S)-2-hydroxycyclohexyl)-1H-pyrrolo[3,2-b]pyridine-3-carboxamide] gave an EC50 of 0.316 µM.
